Results as given in patent publication US8808737B2 (Endo Pharmaceuticals Inc., priority 2007, dated 2014).

Tests used:
[1] = Example 5: plasma pharmacokinetics of oxymorphone and metabolites after EN3202 in renal impairment vs healthy controls; details: for Mean bioavailability ratio (90% confidence interval) for AUC relative to controls / Mean bioavailability ratio (90% confidence interval) for Cmax relative to controls: ln-transformed; for AUC in plasma (mean, untransformed) / AUCT in plasma (mean, untransformed) / Cmax in plasma (mean, untransformed) / Tmax in plasma (median) / t½, terminal elimination half-life in plasma (mean): single 20 mg dose of EN3202
Method: (§1) Attempts were made to match controls with the renal impaired patients with respect to age, gender, and weight. […] Naltrexone (50 mg) was administered on the evening prior to administration of the EN3202 dose.
In order to protect the subjects from potential opioid-related adverse events, a single 50-mg dose of the opioid antagonist ReVia® (naltrexone HCl) was administered at 20:00 the evening prior to administration of test medication. […] Subjects continued fasting until four (4) hours after dose administration. The subjects remained in an upright posture (sitting or standing) for 1 hour after dose administration. All doses were administered with 240 mL of water (room temperature), and the subjects were instructed to drink all the water.
(§2) Plasma and urine pharmacokinetic variables were calculated from the concentration data using standard, non-compartmental methods as outlined in the following table.
All pharmacokinetic results are summarized using appropriate descriptive statistics. Continuous variables were compared between renally impaired and control groups using appropriate parametric statistics. 90% confidence intervals were calculated for the differences or ratios between the renally impaired and control groups. In addition, the association between oral clearance (and other pharmacokinetic variables) and the severity of renal insufficiency (based on creatinine clearance) was explored.

[2] = Example 5: urinary excretion of oxymorphone and metabolites after EN3202 in renal impairment; details: for Mean percentage of the administered dose excreted in the urine / Mean urinary elimination half-life: EN3202 20 mg; for Mean percentage of the administered dose excreted in the urine: 0-120 hours; for Mean (SD) Ratio of Metabolite/Parent Excreted in Urine: parent = oxymorphone; for Mean (SD) Percent of Dose Recovered in Urine (0-120 hours): single oral 20-mg dose of EN3202
Method: as §1
Each subject was to be instructed to void at the end of each interval (so that each collection interval began with an empty bladder). The void prior to administration of the test medication (time 0) served as the pre-dose blank and was not be included in the collection container.
as §2

[3] = Example 5: correlation of oxymorphone and metabolite plasma AUC / oral clearance with creatinine clearance; assay type: in vivo, human; details: linear regression
Description: Creatinine clearance (ClCR) was estimated at screening using the following Cockroft and Gault^8 equation: […]
All pharmacokinetic results are summarized using appropriate descriptive statistics.
The potential association between plasma AUC and creatinine clearance was explored using linear regression techniques and the results are summarized in Table 36 and FIG. 16.

[4] = EN3202 20 mg, mild renal impairment
[5] = EN3202 20 mg, moderate renal impairment
[6] = EN3202 20 mg, severe renal impairment
[7] = Healthy Controls, listed as oxymorphone-3-glucuronide
[8] = Severe Impairment, listed as oxymorphone-3-glucuronide
[9] = subjects with mild renal impairment
[10] = subjects with moderate renal impairment
[11] = subjects with severe renal impairment
[12] = AUC normalized for body weight vs creatinine clearance
[13] = plasma AUC vs creatinine clearance

Structure (SMILES): CN1CC[C@]23c4c5ccc(O[C@@H]6O[C@H](C(=O)O)[C@@H](O)[C@H](O)[C@H]6O)c4O[C@H]2C(=O)CC[C@@]3(O)[C@H]1C5 [Oxymorphone-3-glucuronide, oxymorphone-3-glucuronide]
- Mean plasma metabolite:oxymorphone ratio of AUC values (molar units) ([1]; EN3202 20 mg, healthy controls): 94.1
- Mean plasma metabolite:oxymorphone ratio of AUC values (molar units) [1, 4]: 132.3
- Mean bioavailability ratio (90% confidence interval) for AUC relative to controls [1, 4]: 1.7960 (1.3071-2.4677)
- Mean bioavailability ratio (90% confidence interval) for Cmax relative to controls [1, 4]: 1.5769 (1.2146-2.0473)
- Mean plasma metabolite:oxymorphone ratio of AUC values (molar units) [1, 5]: 191.4
- Mean bioavailability ratio (90% confidence interval) for AUC relative to controls [1, 5]: 3.1196 (2.2704-4.2863)
- Mean bioavailability ratio (90% confidence interval) for Cmax relative to controls [1, 5]: 1.9830 (1.5274-2.5745)
- Mean plasma metabolite:oxymorphone ratio of AUC values (molar units) [1, 6]: 505.6
- Mean bioavailability ratio (90% confidence interval) for AUC relative to controls [1, 6]: 9.0701 (6.6013-12.462)
- Mean bioavailability ratio (90% confidence interval) for Cmax relative to controls [1, 6]: 3.1422 (2.4202-4.0795)
- Mean increase in plasma AUC values relative to healthy controls ([1]; EN3202 20 mg, subjects with creatinine clearance values, 30 mL/min): ~9.7 fold
- AUC in plasma (mean, untransformed) ([1]; Healthy Controls): 2439.7 ng·h/mL
- AUCT in plasma (mean, untransformed) ([1]; Healthy Controls): 2309.5 ng·h/mL
- Cmax in plasma (mean, untransformed) ([1]; Healthy Controls): 170.1 ng/mL
- Tmax in plasma (median) ([1]; Healthy Controls): 3.0 h
- t½, terminal elimination half-life in plasma (mean) ([1]; Healthy Controls): 9.53 h
- AUC in plasma (mean, untransformed) [1, 7]: 2440 ng·h/mL
- Cmax in plasma (mean, untransformed) [1, 7]: 170 ng/mL
- t½, terminal elimination half-life in plasma (mean) [1, 7]: 9.5 h
- AUC in plasma (mean, untransformed) ([1]; Mild Impairment): 4468.6 ng·h/mL
- AUCT in plasma (mean, untransformed) ([1]; Mild Impairment): 4330.7 ng·h/mL
- Cmax in plasma (mean, untransformed) ([1]; Mild Impairment): 280.2 ng/mL
- Tmax in plasma (median) ([1]; Mild Impairment): 3.5 h
- t½, terminal elimination half-life in plasma (mean) ([1]; Mild Impairment): 10.23 h
- AUC in plasma (mean, untransformed) ([1]; Moderate Impairment): 8129.7 ng·h/mL
- AUCT in plasma (mean, untransformed) ([1]; Moderate Impairment): 7959.9 ng·h/mL
- Cmax in plasma (mean, untransformed) ([1]; Moderate Impairment): 359.7 ng/mL
- Tmax in plasma (median) ([1]; Moderate Impairment): 4.5 h
- t½, terminal elimination half-life in plasma (mean) ([1]; Moderate Impairment): 11.10 h
- AUC in plasma (mean, untransformed) ([1]; Severe Impairment): 23604.2 ng·h/mL
- AUCT in plasma (mean, untransformed) ([1]; Severe Impairment): 22313.6 ng·h/mL
- Cmax in plasma (mean, untransformed) ([1]; Severe Impairment): 547.7 ng/mL
- Tmax in plasma (median) ([1]; Severe Impairment): 11.0 h
- t½, terminal elimination half-life in plasma (mean) ([1]; Severe Impairment): 22.09 h
- AUC in plasma (mean, untransformed) [1, 8]: 23604 ng·h/mL
- Cmax in plasma (mean, untransformed) [1, 8]: 548 ng/mL
- t½, terminal elimination half-life in plasma (mean) [1, 8]: 22.1 h
- Mean percentage of the administered dose excreted in the urine ([2]; healthy controls): 37.16%
- Mean percentage of the administered dose excreted in the urine ([2]; severe renal impairment): 38.35%
- Mean urinary elimination half-life ([2]; healthy controls): 12.7 h
- Mean urinary elimination half-life ([2]; mild renal impairment): 9.8 h
- Mean urinary elimination half-life ([2]; moderate renal impairment): 12.8 h
- Mean urinary elimination half-life ([2]; severe renal impairment): 36.6 h
- Mean (SD) Ratio of Metabolite/Parent Excreted in Urine ([2]; healthy controls): 51.78 (16.89)
- Mean (SD) Percent of Dose Recovered in Urine (0-120 hours) ([2]; healthy controls): 37.16 (14.94) %
- Mean (SD) Ratio of Metabolite/Parent Excreted in Urine [2, 9]: 72.17 (48.36)
- Mean (SD) Percent of Dose Recovered in Urine (0-120 hours) [2, 9]: 44.36 (8.72) %
- Mean (SD) Ratio of Metabolite/Parent Excreted in Urine [2, 10]: 70.62 (37.69)
- Mean (SD) Percent of Dose Recovered in Urine (0-120 hours) [2, 10]: 38.87 (8.63) %
- Mean (SD) Ratio of Metabolite/Parent Excreted in Urine [2, 11]: 112.44 (40.45)
- Mean (SD) Percent of Dose Recovered in Urine (0-120 hours) [2, 11]: 38.35 (13.10) %
- AUC/wt vs. CLCR: R-square [3, 12]: 0.4911
- AUC/wt vs. CLCR: Slope [3, 12]: −1.4140
- AUC vs. CLCR: R-square [3, 13]: 0.4976
- AUC vs. CLCR: Slope [3, 13]: −221.43
